In paper PMC5740082, “Identification of a CARM1 Inhibitor with Potent In Vitro and In Vivo Activity in Preclinical Models of Multiple Myeloma” (Scientific Reports, 2017):

Experiments:
[1] = system: REC-1; test: Six-day cell proliferation assay (CellTiter-Glo); type: cell-based; conditions: Homo sapiens, Rec1, 144 h; REC-1 (B-NHL), 6 days; read-out: Average day 6 gIC50
Experimental: Six-day cell proliferation assay
Optimal cell seeding density was determined empirically for each cell lines by examining the gro wth of a wide ran ge o f seedin g densities in a 3 84-well formatto identify conditio ns that permitted maximal and continued proliferation for 6 days. Cells were plat ed in duplicate plates 24 hours before treatment with a 20- point two-fold dilution series of compound or 0.15%
DMSO. Plates were incubated for 6 da ys at 37°C in 5% CO2. Cells were th en l ysed with CellTiter-Glo (CTG) (Pr omega) and chemiluminescent sign al was detected with an appropriat e microplate reader. In addition, an untreated plate of cells was harvested at the time of compound addition (T0) to quantif y the initial cell densit y. CTG values obtained after 6 days of treatment were expressed as a percent of the T0 value and plotted against compound concentration. […]
Supplementary Table S 3. […] A p anel […]
of cell lines was treated with EZM2302fo r 6da ys in a proliferation ass a y. Cell densit y (as assessed b y CellTiter-Gl o) at da y 0 was compared to day 6 to det ermine growth IC 50 values , calculated us i n g a f our parameter dose response equation.
Cell Type According to Cell Type Category Cell L ine Name gIC50 Average day 6 Standard Replicates
Supplier Modifier gIC50 (nM) Deviation

[2] = target: hERG channel (Homo sapiens, UniProt Q12809); test: hERG channel current inhibition; type: biochemical; conditions: read-out: IC50 against hERG channel current inhibition
hERG channel, sequence (Q12809 whole entry): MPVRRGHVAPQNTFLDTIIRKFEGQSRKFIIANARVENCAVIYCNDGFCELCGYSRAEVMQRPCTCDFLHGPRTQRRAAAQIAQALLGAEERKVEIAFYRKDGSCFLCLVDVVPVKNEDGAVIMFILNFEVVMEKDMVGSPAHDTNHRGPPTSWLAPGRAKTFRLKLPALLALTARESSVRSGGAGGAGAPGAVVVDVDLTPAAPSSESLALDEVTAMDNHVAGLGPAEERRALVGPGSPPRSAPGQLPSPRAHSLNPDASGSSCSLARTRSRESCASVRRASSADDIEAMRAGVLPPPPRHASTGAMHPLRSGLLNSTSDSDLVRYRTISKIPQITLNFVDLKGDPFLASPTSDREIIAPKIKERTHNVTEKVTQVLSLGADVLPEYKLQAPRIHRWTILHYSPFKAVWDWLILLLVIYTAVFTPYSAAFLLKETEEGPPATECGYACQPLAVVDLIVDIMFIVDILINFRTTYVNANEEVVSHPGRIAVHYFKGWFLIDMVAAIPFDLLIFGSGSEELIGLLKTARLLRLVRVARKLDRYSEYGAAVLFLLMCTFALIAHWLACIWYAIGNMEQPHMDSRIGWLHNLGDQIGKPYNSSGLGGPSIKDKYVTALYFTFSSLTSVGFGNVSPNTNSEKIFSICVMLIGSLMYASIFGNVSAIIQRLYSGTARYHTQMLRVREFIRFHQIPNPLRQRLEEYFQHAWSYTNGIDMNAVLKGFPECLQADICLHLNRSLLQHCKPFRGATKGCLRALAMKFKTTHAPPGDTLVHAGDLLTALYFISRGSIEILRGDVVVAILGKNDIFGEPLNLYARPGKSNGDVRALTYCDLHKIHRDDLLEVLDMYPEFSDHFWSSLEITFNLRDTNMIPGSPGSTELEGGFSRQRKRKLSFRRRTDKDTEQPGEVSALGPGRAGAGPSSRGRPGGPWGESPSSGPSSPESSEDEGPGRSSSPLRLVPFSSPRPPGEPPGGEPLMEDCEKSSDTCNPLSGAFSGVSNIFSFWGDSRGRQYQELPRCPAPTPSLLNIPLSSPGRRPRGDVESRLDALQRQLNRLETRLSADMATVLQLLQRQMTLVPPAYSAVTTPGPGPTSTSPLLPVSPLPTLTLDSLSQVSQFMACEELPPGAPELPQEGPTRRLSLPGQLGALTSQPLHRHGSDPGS

[3] = Plasma protein binding (equilibrium dialysis), mouse plasma; type: in vitro ADME, CD-1 mouse; conditions: male, CD-1, pH 7.4
Experimental: Hepatocyte stability, plasma protein binding and cytochrome P450 assays were performed using standard procedures. Details can be found in Supplementary Methods. […]
reaction. Plates were incubated at 37°C and 50 µL aliquots were removed from the incubation mixture at 0, 10, 20, 40, 60 and 90 min and added to 2 volumes of methanol containing metoprolol (internal standard) to stop the reaction. Negative control incubations with inactivated cell l ysat e were incubat ed for 90 min. Positive controls were verapamil and umbelliferone. The termination plates were centrifuged at 2,500 rpm for 20 min at 4°C to precipitate the protein prior to LC -MS/MS analysis. In vitro h alf -life (t½) value was det ermined b y plotting the natural logarithm of the anal yte/ IS peak area ratios as a function of time, with the slope of the linear regression (k; - gradient) converted to in vitro t ½ v alue wher e t ½=0.693/k. […]
Plasma protein binding was assessed b y equilibrium dial ysis, utilizing the HT-dial ysis cell format with a cellulose semi- permeable membran e (molecular wei ght cut-off of 5000 Da).
(pH 7.4) and 100% mixed gender pooled human, pooled male CD -1 mouse or Sprague-Dawle y rat plasma. […] Samples were quantified using standard curves prepared in the equivalent matrix. The fraction unbound in plas ma (fu) was calculated us ing the followin g equ ation: […]

CNC[C@@H](O)COc1ccc(Cl)c(-c2nc(-c3c(C)noc3C)c(C)c(N3CC4(CCN(C(=O)OC)CC4)C3)n2)c1 [EZM2302]
IC50 [1]: > 7.33 µM | IC50 [2]: > 100 µM | fraction unbound at 16 h, 5 µM [3]: 0.46
